Reference: ChEMBL document CHEMBL1201862, “PubChem BioAssay data set” (2004)
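Method: 48-hour compound exposure of cells in 96-well plates, five concentrations, linear interpolation of endpoints. GI50 marks 50% less growth.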 Activity calls are given as the source filed them. Rule as the data show it: active = GI50 up to about 1.1 µM and inactive = higher.

Legend:
Test in all cases: NCI anticancer screen, dose series, 48 h
SF-295 = test system: SF-295
Malme-3M = test system: Malme-3M
COLO 205 = test system: COLO 205
LXFL 529 = test system: LXFL 529
SR = test system: SR
TK-10 = test system: TK-10
SW-620 = test system: SW-620
KM-20L2 = test system: KM-20L2
A498 = test system: A498
SF-268 = test system: SF-268
OVCAR-8 = test system: OVCAR-8
XF498 = test system: XF498
EKVX = test system: EKVX
NCI-H460 = test system: NCI-H460
M14 = test system: M14
OVCAR-5 = test system: OVCAR-5
HCT-15 = test system: HCT-15
NCI-H522 = test system: NCI-H522
HOP-92 = test system: HOP-92
K562 = test system: K562
SF-539 = test system: SF-539
HOP-18 = test system: HOP-18
CAKI-1 = test system: CAKI-1
HOP-62 = test system: HOP-62
SNB-75 = test system: SNB-75
SK-MEL-28 = test system: SK-MEL-28
HCC 2998 = test system: HCC 2998
OVCAR-4 = test system: OVCAR-4
786-0 = test system: 786-0
M19-MEL = test system: M19-MEL
A549 = test system: A549
OVCAR-3 = test system: OVCAR-3
HCT-116 = test system: HCT-116
RPMI-8226 = test system: RPMI-8226
DLD-1 = test system: DLD-1
SN12C = test system: SN12C
SK-MEL-2 = test system: SK-MEL-2
DMS-273 = test system: DMS-273
LOX IMVI = test system: LOX IMVI
UACC-62 = test system: UACC-62
KM12 = test system: KM12
SK-OV-3 = test system: SK-OV-3
DMS-114 = test system: DMS-114
HL-60 = test system: HL-60
RXF 393 = test system: RXF 393
U-251 = test system: U-251
HT-29 = test system: HT-29
UACC-257 = test system: UACC-257
ACHN = test system: ACHN
SNB-19 = test system: SNB-19
SNB-78 = test system: SNB-78
NCI-H23 = test system: NCI-H23
NCI-H226 = test system: NCI-H226
CCRF-CEM = test system: CCRF-CEM
UO-31 = test system: UO-31
MOLT-4 = test system: MOLT-4

C#CC1(O)CCC2[C@@H]3CCc4cc(Oc5nc(F)nc(-c6c7ccccc7cn6C)n5)ccc4C3CC[C@@]21C (stereo partly specified)
GI50 (SF-295): > 100 µM (inactive)
GI50 (Malme-3M): > 100 µM (inactive)
GI50 (COLO 205): > 78.9 µM (inactive)
GI50 (LXFL 529): > 100 µM (inactive)
GI50 (SR): > 46.3 µM (inactive)
GI50 (TK-10): > 100 µM (inactive)
GI50 (SW-620): 55.5 µM (inactive)
GI50 (KM-20L2): > 100 µM (inactive)
GI50 (A498): > 100 µM (inactive)
GI50 (SF-268): > 88.1 µM (inactive)
GI50 (OVCAR-8): > 100 µM (inactive)
GI50 (XF498): > 100 µM (inactive)
GI50 (EKVX): > 100 µM (inactive)
GI50 (NCI-H460): > 79.3 µM (inactive)
GI50 (M14): > 100 µM (inactive)
GI50 (OVCAR-5): > 100 µM (inactive)
GI50 (HCT-15): > 72.3 µM
GI50 (NCI-H522): 89.3 µM (inactive)
GI50 (HOP-92): > 100 µM (inactive)
GI50 (K562): > 67 µM (inactive)
GI50 (SF-539): > 100 µM (inactive)
GI50 (HOP-18): > 100 µM (inactive)
GI50 (CAKI-1): > 100 µM (inactive)
GI50 (HOP-62): > 100 µM (inactive)
GI50 (SNB-75): > 91.2 µM (inactive)
GI50 (SK-MEL-28): > 100 µM (inactive)
GI50 (HCC 2998): > 100 µM (inactive)
GI50 (OVCAR-4): > 100 µM (inactive)
GI50 (786-0): > 100 µM (inactive)
GI50 (M19-MEL): > 100 µM (inactive)
GI50 (A549): > 100 µM (inactive)
GI50 (OVCAR-3): > 100 µM (inactive)
GI50 (HCT-116): > 100 µM (inactive)
GI50 (RPMI-8226): > 47.4 µM (inactive)
GI50 (DLD-1): > 48.2 µM (inactive)
GI50 (SN12C): > 100 µM (inactive)
GI50 (SK-MEL-2): > 100 µM (inactive)
GI50 (DMS-273): > 66.1 µM (inactive)
GI50 (LOX IMVI): > 100 µM (inactive)
GI50 (UACC-62): > 100 µM (inactive)
GI50 (KM12): > 100 µM (inactive)
GI50 (SK-OV-3): > 100 µM (inactive)
GI50 (DMS-114): 35.8 µM (inactive)
GI50 (HL-60): > 70.5 µM (inactive)
GI50 (RXF 393): > 93.1 µM (inactive)
GI50 (U-251): > 100 µM (inactive)
GI50 (HT-29): > 100 µM (inactive)
GI50 (UACC-257): > 100 µM (inactive)
GI50 (ACHN): > 100 µM (inactive)
GI50 (SNB-19): > 100 µM (inactive)
GI50 (SNB-78): > 100 µM (inactive)
GI50 (NCI-H23): > 100 µM (inactive)
GI50 (NCI-H226): > 100 µM (inactive)
GI50 (CCRF-CEM): 30.7 µM (inactive)
GI50 (UO-31): > 62.1 µM (inactive)
GI50 (MOLT-4): 44.9 µM (inactive)
